In ChEMBL document CHEMBL1201861, “Genomics of Drug Sensitity in Cancer screening data, Wellcome Trust Sanger Institute”:
Where a SMILES comes first, the peptide text is derived from it. The star is where a group is joined. Cbz = O=C(OCc1ccccc1)*

Tests used:
Type in all cases: functional, cell-based
Calu-1 = assay: SANGER: Inhibition of human Calu-1 cell growth in a cell viability assay.
DMS-53 = assay: cells; settings: Homo sapiens;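 further: cell viability assay measuring growth inhibition of human DMS-53 cells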
Description: SANGER: Inhibition of human DMS-53 cell growth in a cell viability assay.

DV-90 = assay: cells; settings: Homo sapiens;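 further: Read-out is a viability assay, with IC50 reflecting the drop in DV-90 cell growth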
Description: SANGER: Inhibition of human DV-90 cell growth in a cell viability assay.

EW-7 = assay: SANGER: Inhibition of human EW-7 cell growth in a cell viability assay.
HCC1143 = assay: cells; settings: Homo sapiens;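 further: growth inhibition of human HCC1143 cells, read out with a cell viability assay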
Description: SANGER: Inhibition of human HCC1143 cell growth in a cell viability assay.

MDA-MB-468 = assay: cells; settings: Homo sapiens
Description: SANGER: Inhibition of human MDA-MB-468 cell growth in a cell viability assay.

MES-SA = assay: cells; settings: Homo sapiens;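 further: growth inhibition of human MES-SA cells, read out with a cell viability assay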
Description: SANGER: Inhibition of human MES-SA cell growth in a cell viability assay.

NCI-H1618 = assay: cells; settings: Homo sapiens;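 further: growth inhibition of human NCI-H1618 cells, measured by a cell viability assay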
Description: SANGER: Inhibition of human NCI-H1618 cell growth in a cell viability assay.

NCI-H1734 = assay: cells; settings: Homo sapiens;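 further: growth inhibition of human NCI-H1734 cells, read out with a cell viability assay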
Description: SANGER: Inhibition of human NCI-H1734 cell growth in a cell viability assay.

NCI-H2227 = assay: cells; settings: Homo sapiens;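 further: growth inhibition of the human cell line, read out with a cell viability assay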
Description: SANGER: Inhibition of human NCI-H2227 cell growth in a cell viability assay.

NCI-H838 = assay: cells; settings: Homo sapiens;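 further: growth inhibition of human NCI-H838 cells, read out by a cell viability assay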
Description: SANGER: Inhibition of human NCI-H838 cell growth in a cell viability assay.

PLC-PRF-5 = assay: cells; settings: Homo sapiens;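 further: growth inhibition of human PLC-PRF-5 cells, read out with a viability assay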
Description: SANGER: Inhibition of human PLC-PRF-5 cell growth in a cell viability assay.

SK-CO-1 = assay: cells; settings: Homo sapiens;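 further: growth inhibition of SK-CO-1 cells, determined by a viability readout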
Description: SANGER: Inhibition of human SK-CO-1 cell growth in a cell viability assay.

SNU-475 = assay: cells; settings: Homo sapiens
Description: SANGER: Inhibition of human SNU-475 cell growth in a cell viability assay.

C-4-II = assay: SANGER: Inhibition of human C-4-II cell growth in a cell viability assay.
TT = assay: cells; settings: Homo sapiens
Description: SANGER: Inhibition of human TT cell growth in a cell viability assay.

CCF-STTG1 = assay: cells; settings: Homo sapiens;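 further: growth inhibition of human CCF-STTG1 cells, determined with a cell viability read-out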
Description: SANGER: Inhibition of human CCF-STTG1 cell growth in a cell viability assay.

COLO 205 = assay: cells; settings: Homo sapiens
Description: SANGER: Inhibition of human COLO-205 cell growth in a cell viability assay.

Caov-4 = assay: cells; settings: Homo sapiens
Description: SANGER: Inhibition of human Caov-4 cell growth in a cell viability assay.

SKM-1 = assay: SANGER: Inhibition of human SKM-1 cell growth in a cell viability assay.
TC-YIK = assay: SANGER: Inhibition of human TC-YIK cell growth in a cell viability assay.
CP67-MEL = assay: SANGER: Inhibition of human CP67-MEL cell growth in a cell viability assay.
KP-N-RT-BM-1 = assay: SANGER: Inhibition of human KP-N-RT-BM-1 cell growth in a cell viability assay.
D-566MG = assay: cells; settings: Homo sapiens
ECC10 = assay: cells; settings: Homo sapiens;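 further: growth inhibition of ECC10 cells, read out by a cell viability assay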
Description: SANGER: Inhibition of human ECC10 cell growth in a cell viability assay.

NBsusSR = assay: cells; settings: Homo sapiens;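 further: growth inhibition of the human cell line, read out with a cell viability assay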
Description: SANGER: Inhibition of human NBsusSR cell growth in a cell viability assay.

NCI-H1048 = assay: cells; settings: Homo sapiens;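 further: growth inhibition of human NCI-H1048 cells, read out with a cell viability assay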
Description: SANGER: Inhibition of human NCI-H1048 cell growth in a cell viability assay.

NCI-H1975 = assay: cells; settings: Homo sapiens
Description: SANGER: Inhibition of human NCI-H1975 cell growth in a cell viability assay.

NCI-H2029 = assay: cells; settings: Homo sapiens;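 further: Read-out is a viability assay on the cultured cells, and IC50 is the concentration that suppresses cell growth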
Description: SANGER: Inhibition of human NCI-H2029 cell growth in a cell viability assay.

NCI-H2291 = assay: cells; settings: Homo sapiens
Description: SANGER: Inhibition of human NCI-H2291 cell growth in a cell viability assay.

SW 1116 = assay: cells; settings: Homo sapiens;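 further: growth inhibition of SW1116 cells, read out with a cell viability assay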
Description: SANGER: Inhibition of human SW1116 cell growth in a cell viability assay.

SW900 = assay: cells; settings: Homo sapiens;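 further: IC50 is the concentration that inhibits SW900 cell growth, measured by a cell viability assay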
Description: SANGER: Inhibition of human SW900 cell growth in a cell viability assay.

A549 = assay: cells; settings: Homo sapiens;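 further: growth inhibition of A549 cells, read out with a cell viability assay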
Description: SANGER: Inhibition of human A549 cell growth in a cell viability assay.

BALL-1 = assay: cells; settings: Homo sapiens;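 further: growth inhibition of BALL-1 cells, read out with a cell viability assay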
Description: SANGER: Inhibition of human BALL-1 cell growth in a cell viability assay.

BT-549 = assay: cells; settings: Homo sapiens
Description: SANGER: Inhibition of human BT-549 cell growth in a cell viability assay.

TI-73 = assay: cells; settings: Homo sapiens;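 further: cell viability assay measuring how much compounds suppress growth of the cultured cell line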
Description: SANGER: Inhibition of human TI-73 cell growth in a cell viability assay.

ZR-75-30 = assay: cells; settings: Homo sapiens;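 further: growth inhibition of ZR-75-30 cells, measured with a cell viability readout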
Description: SANGER: Inhibition of human ZR-75-30 cell growth in a cell viability assay.

Row | Compound | IC50 (Calu-1) [µM] | IC50 (DMS-53) [µM] | IC50 (DV-90) [µM] | IC50 (EW-7) [µM] | IC50 (HCC1143) [µM] | IC50 (MDA-MB-468) [µM] | IC50 (MES-SA) [µM] | IC50 (NCI-H1618) [µM] | IC50 (NCI-H1734) [µM] | IC50 (NCI-H2227) [µM] | IC50 (NCI-H838) [µM] | IC50 (PLC-PRF-5) [µM] | IC50 (SK-CO-1) [µM] | IC50 (SNU-475) [µM] | IC50 (C-4-II) [µM] | IC50 (TT) [µM] | IC50 (CCF-STTG1) [µM] | IC50 (COLO 205) [µM] | IC50 (TC-YIK) [µM] | also measured
1 | COc1ccc(-c2cc3nccn3c(Nc3ncccc3C(N)=O)n2)cc1OC | > 8 | > 8 | > 8 | 1.98 | > 8 | > 8 | 0.96 | > 8 | 4.86 | > 8 | > 8 | > 8 | > 8 | > 8 | > 8 | > 8 | 7.24 | 2.35 | – | –
2 | COC(=O)[C@H](CCSC)NC(=O)c1ccc(NC[C@@H](N)CS)cc1-c1ccccc1 | > 1.02 | > 1.02 | > 1.02 | > 1.02 | > 1.02 | > 1.02 | > 1.02 | > 1.02 | > 1.02 | > 1.02 | > 1.02 | > 1.02 | > 1.02 | > 1.02 | > 1.02 | > 1.02 | > 1.02 | > 1.02 | – | IC50 (Caov-4): > 1.02 µM
3 | OC[C@H](Cc1ccccc1)Nc1nc(Oc2ccc3c(c2)CCC3)nc2c1ncn2Cc1ccc(-c2ccccc2)cc1 | 2.61 | > 10.2 | > 10.2 | > 10.2 | > 10.2 | > 10.2 | > 10.2 | > 10.2 | > 10.2 | > 10.2 | > 10.2 | > 10.2 | > 10.2 | > 10.2 | > 10.2 | > 10.2 | > 10.2 | 2.29 | – | –
4 | O=S(=O)(O)c1ccc2cc(/N=N/c3cc(S(=O)(=O)O)c4cccnc4c3O)ccc2c1 | > 16 | > 16 | > 16 | > 16 | > 16 | > 16 | > 16 | > 16 | > 16 | > 16 | > 16 | > 16 | > 16 | > 16 | > 16 | > 16 | > 16 | > 16 | – | IC50 (Caov-4): > 16 µM
5 | CC(C)C[C@H](NC(=O)[C@H](Cc1ccccc1)NC(=O)c1cnccn1)B(O)O [BORTEZOMIB] | – | – | – | – | – | – | – | – | – | > 0.02 | – | – | – | – | – | – | – | – | > 0.02 | IC50 (SKM-1; Homo sapiens, SKM-1): > 0.02 µM
6 | C[C@@H](Oc1cc(-c2cnn(C3CCNCC3)c2)cnc1N)c1c(Cl)ccc(F)c1Cl [CRIZOTINIB] | – | – | – | – | – | – | – | – | – | – | – | – | – | – | – | – | – | – | > 2 | IC50 (CP67-MEL): > 2 µM; IC50 (KP-N-RT-BM-1): > 2 µM; IC50 (SKM-1; Homo sapiens, SKM-1): > 2 µM
7 | CCCCCCCCCCCC1=C(O)C(=O)C=C(O)C1=O [EMBELIN] | 17.1 | 15.5 | 29.9 | 23.2 | 7.14 | > 32 | 16.5 | > 32 | 15 | > 32 | > 32 | 6.93 | 13.6 | > 32 | > 32 | 23.5 | 14 | 3.87 | – | –
8 | CC(C)C[C@@H](C=O)NC(=O)[C@H](CC(C)C)NC(=O)[C@H](CC(C)C)NC(=O)OCc1ccccc1 [MG-132] (Cbz-Leu-Leu-Leu-aldehyde) | – | – | – | – | – | – | – | – | – | > 1 | – | – | – | – | – | – | – | – | > 1 | IC50 (CP67-MEL): 0.267 µM; IC50 (KP-N-RT-BM-1): > 1 µM; IC50 (SKM-1; skm-1): > 1 µM
9 | C/C(=C\c1csc(C)n1)[C@@H]1C[C@@H]2O[C@]2(C)CCC[C@H](C)[C@H](O)[C@@H](C)C(=O)C(C)(C)[C@@H](O)CC(=O)O1 [PATUPILONE] | 0.0106 | > 0.032 | 0.0146 | 0.00225 | > 0.032 | 0.00175 | 0.00198 | 0.00762 | 0.016 | > 0.032 | 0.0118 | > 0.032 | 0.00913 | > 0.032 | 0.00537 | > 0.032 | 0.00583 | 0.000802 | – | –
10 | Cc1ccc(C(=O)Nc2ccc(CN3CCN(C)CC3)c(C(F)(F)F)c2)cc1C#Cc1cnc2cccnn12 [PONATINIB] | > 0.512 | > 0.512 | > 0.512 | > 0.512 | > 0.512 | > 0.512 | 0.242 | > 0.512 | > 0.512 | > 0.512 | > 0.512 | > 0.512 | > 0.512 | > 0.512 | > 0.512 | > 0.512 | 0.225 | > 0.512 | – | IC50 (Caov-4): > 0.512 µM
11 | COc1cc(N2CCC(N3CCN(C)CC3)CC2)ccc1Nc1ncc(Cl)c(Nc2ccccc2S(=O)(=O)C(C)C)n1 [TAE-684] | – | – | – | – | – | – | – | – | – | – | – | – | – | – | – | – | – | – | > 2 | IC50 (CP67-MEL): > 2 µM; IC50 (KP-N-RT-BM-1): 0.331 µM; IC50 (SKM-1; Homo sapiens, SKM-1): > 2 µM
12 | CC1=C(/C=C/C(C)=C/C=C/C(C)=C/C(=O)O)C(C)(C)CCC1 [TRETINOIN] | – | – | – | – | – | – | – | – | – | – | – | – | – | – | – | – | – | – | – | IC50 (D-566MG): > 10 µM; IC50 (ECC10): 2.38 µM; IC50 (NBsusSR): 1.45 µM; IC50 (NCI-H1048): > 10 µM; IC50 (NCI-H1975): > 10 µM; IC50 (NCI-H2029): > 10 µM; IC50 (NCI-H2291): > 10 µM; IC50 (SW 1116): > 10 µM; IC50 (SW900): > 10 µM; IC50 (A549): > 10 µM; IC50 (BALL-1): > 10 µM; IC50 (BT-549): > 10 µM; IC50 (TI-73): > 10 µM; IC50 (ZR-75-30): > 10 µM
13 | NC(=O)c1ccc(N(C(N)=O)c2c(F)cccc2F)nc1-c1ccc(F)cc1F [VX-702] | – | – | – | – | – | – | – | – | – | – | – | – | – | – | – | – | – | – | – | IC50 (D-566MG): > 2 µM; IC50 (ECC10): 0.654 µM; IC50 (NBsusSR): > 2 µM; IC50 (NCI-H1048): > 2 µM; IC50 (NCI-H1975): > 2 µM; IC50 (NCI-H2029): > 2 µM; IC50 (NCI-H2291): > 2 µM; IC50 (SW 1116): > 2 µM; IC50 (SW900): > 2 µM; IC50 (A549): > 2 µM; IC50 (BALL-1): > 2 µM; IC50 (BT-549): > 2 µM; IC50 (TI-73): > 2 µM; IC50 (ZR-75-30): > 2 µM
